Test results published in article PMC6268995, “(E)-5-Styryl-1H-indole and (E)-6-Styrylquinoline Derivatives Serve as Probes for β-Amyloid Plaques” (Molecules, 2012).
“Also recorded” adds a separate entry of the source. Where two headings read alike, the source gives them in different places. One block for each molecule: values may come before it.

Columns and labels:
[1] = molecular target: T1, Aβ1–40 aggregates (Homo sapiens, UniProt P05067); set-up: method as in PMID 11384236; conditions: literature value ref 21; cited from earlier work
T1 construct: β-amyloid(1–40) were purchased from AnaSpec; purchased AnaSpec (San Jose, CA, USA)
T1 sequence (P05067 672-711 limits assumed): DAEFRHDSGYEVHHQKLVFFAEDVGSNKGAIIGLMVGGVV

[2] = molecular target: T1, Aβ1–40 aggregates; assay: Competition binding assay on Aβ1–40 aggregates using [125I]TZDM as radio-ligand; conditions: Aβ1–40 aggregates against [125I]TZDM; triplicate, mean ± SD
Description: The lyophilized white powder of β-amyloid(1–40) were purchased from AnaSpec (San Jose, CA, USA). After reconstituted by adding basic buffer (1% NH4OH. 60–70 μL) to β-amyloid (1–40) (1 mg) aggregation of Aβ1–40 was carried out by gently dissolving Aβ1–40 (0.25 mg/mL) in a PBS buffer (pH 7.4). The solution was incubated at 37 °C for 72 h with gentle and constant shaking. Binding studies were carried out according to the procedure described previously with some modifications using [^125I]TZDM as the radiolabeled standard. […] The mixture was incubated at 37 °C for 2 h. […] Filters containing the bound ^125I ligand were counted in a γ-counter (WALLAC Wizard 1470, PerkinElmer Life Sciences, Waltham, MA, USA) with 75% counting efﬁciency. The IC50 values were determined using GraphPad Prism 5.0, and those for the inhibition constant (Ki) were calculated using the Cheng Prusoff equation: Ki = IC50/(1 + [L]/Kd).

[3] = Partition coefficient determination (n-octanol/PBS); type: physicochemical; conditions: n-octanol / PBS 0.02 M, pH 7.4
Description: The determination of partition coefﬁcients of [^125I]8 and [^125I]17 was performed according to the procedure previously reported with some modifications. Ligand [^125I]8 or [^125I]17 (~5 μCi) was mixed with 3 mL each of n-octanol and PBS (0.02 M, pH 7.4) in a test tube. The test tube was vortexed for 5 min at room temperature, followed by centrifugation for 10 min at 3,000 rpm. Two weighed samples from the n-octanol (50 µL) and buffer layers (400 µL) were counted in a γ-counter. The partition coefﬁcient was expressed as the logarithm of the ratio of the counts per gram from n-octanol versus that of PBS. Samples from the n-octanol layer were repartitioned until consistent partition coefﬁcient values were obtained. The measurements were done in triplicate and repeated three times.

[4] = In vivo biodistribution in normal mice; set-up: species or system KunMing normal mice; conditions: for Biodistribution Blood / Biodistribution Brain / Biodistribution Heart / Biodistribution Kidney / Biodistribution Liver / Biodistribution Lung / Biodistribution Muscle / Biodistribution Spleen / Biodistribution Stomach: iv injection
Description: In vivo biodistribution studies were performed in KunMing normal mice (female, average weight 18–22 g) and in accordance with the national laws related to the care and experiments on laboratory animal. A saline solution (100 µL) containing [^125I]8 or [^125I]17 (1 µCi) was injected directly into the tail vein of mice. The mice (n = 5 for each time point) were sacriﬁced at designated time points post-injection. The organs of interest were removed and weighed, and the radioactivity was counted with an automatic γ-counter (WALLAC Wizard 1470).

[5] = molecular target: Aβ plaques (Homo sapiens, UniProt P05067); assay: In vitro labeling of brain sections from transgenic mouse by autoradiography; type: binding, transgenic model mouse (APP/PS1); conditions: APP/PS1, 12 months, male
Sequence of Aβ plaques (P05067 672-711 limits assumed): as above
Description: The brain sections mentioned above were incubated with [^125I]8 (5 µCi/100µL) for about 20 min at room temperature. Then the sections were washed with saturated Li2CO3 in 40% EtOH for 3 min and 40% EtOH for 3 min, followed by rinsing with water for 30 s. After drying, the ^125I-labeled sections were exposed to phosphorus ﬁlm for 8 h and then scanned with the phosphor imaging system (Cyclone, Packard) at the resolution of 600 dpi. The presence and localization of plaques were confirmed by the ﬂuorescent staining with thioﬂavin-S on the same sections using a Stereo Discovery V12 (Zeiss) instrument equipped with a LP 505 filter set (excitation: 405 nm).

SMILES: CN(C)c1ccc(-c2nc3ccc(I)cc3s2)cc1 [TZDM, reference compound]
Ki [1]: 0.9 ± 0.2 nM | Ki [2]: 4.2 ± 0.4 nM

logD [3]: 2.52 | brain2min/brain60min ratio ([4]; index of washout rate from normal brain): 15.3 | Biodistribution Blood ([4]; 2 min): 11.91 ± 0.62 % ID/g | Biodistribution Brain ([4]; 2 min): 4.27 ± 0.49 % ID/g | Biodistribution Heart ([4]; 2 min): 5.76 ± 0.38 % ID/g | Biodistribution Kidney ([4]; 2 min): 11.66 ± 1.52 % ID/g | Biodistribution Liver ([4]; 2 min): 14.73 ± 0.66 % ID/g | Biodistribution Lung ([4]; 2 min): 10.76 ± 0.63 % ID/g | Biodistribution Muscle ([4]; 2 min): 2.64 ± 0.40 % ID/g | Biodistribution Spleen ([4]; 2 min): 4.38 ± 0.33 % ID/g | Biodistribution Stomach ([4]; 2 min): 1.23 ± 0.56 % ID/organ | Biodistribution Blood ([4]; 15 min): 12.29 ± 1.30 % ID/g | Biodistribution Brain ([4]; 15 min): 1.37 ± 0.16 % ID/g | Biodistribution Heart ([4]; 15 min): 3.70 ± 0.40 % ID/g | Biodistribution Kidney ([4]; 15 min): 14.89 ± 4.23 % ID/g | Biodistribution Liver ([4]; 15 min): 10.66 ± 0.31 % ID/g | Biodistribution Lung ([4]; 15 min): 8.22 ± 0.88 % ID/g | Biodistribution Muscle ([4]; 15 min): 2.01 ± 0.24 % ID/g | Biodistribution Spleen ([4]; 15 min): 4.21 ± 0.26 % ID/g | Biodistribution Stomach ([4]; 15 min): 4.82 ± 0.46 % ID/organ | Biodistribution Blood ([4]; 30 min): 7.64 ± 0.62 % ID/g | Biodistribution Brain ([4]; 30 min): 0.64 ± 0.11 % ID/g | Biodistribution Heart ([4]; 30 min): 2.55 ± 0.52 % ID/g | Biodistribution Kidney ([4]; 30 min): 9.46 ± 1.95 % ID/g | Biodistribution Liver ([4]; 30 min): 7.14 ± 1.13 % ID/g | Biodistribution Lung ([4]; 30 min): 5.39 ± 0.83 % ID/g | Biodistribution Muscle ([4]; 30 min): 1.25 ± 0.04 % ID/g | Biodistribution Spleen ([4]; 30 min): 3.44 ± 0.21 % ID/g | Biodistribution Stomach ([4]; 30 min): 3.50 ± 0.19 % ID/organ | Biodistribution Blood ([4]; 60 min): 4.49 ± 0.28 % ID/g | Biodistribution Brain ([4]; 60 min): 0.28 ± 0.06 % ID/g | Biodistribution Heart ([4]; 60 min): 1.59 ± 0.28 % ID/g | Biodistribution Kidney ([4]; 60 min): 4.65 ± 0.98 % ID/g | Biodistribution Liver ([4]; 60 min): 4.45 ± 0.23 % ID/g | Biodistribution Lung ([4]; 60 min): 3.28 ± 0.10 % ID/g | Biodistribution Muscle ([4]; 60 min): 0.81 ± 0.12 % ID/g | Biodistribution Spleen ([4]; 60 min): 2.44 ± 0.12 % ID/g | Biodistribution Stomach ([4]; 60 min): 1.72 ± 0.21 % ID/organ | Biodistribution Blood ([4]; 120 min): 2.93 ± 0.30 % ID/g | Biodistribution Brain ([4]; 120 min): 0.20 ± 0.08 % ID/g | Biodistribution Heart ([4]; 120 min): 1.47 ± 0.48 % ID/g | Biodistribution Kidney ([4]; 120 min): 1.93 ± 0.76 % ID/g | Biodistribution Liver ([4]; 120 min): 4.19 ± 0.61 % ID/g | Biodistribution Lung ([4]; 120 min): 2.30 ± 0.20 % ID/g | Biodistribution Muscle ([4]; 120 min): 0.61 ±0.24 % ID/g | Biodistribution Spleen ([4]; 120 min): 1.87 ± 0.28 % ID/g | Biodistribution Stomach ([4]; 120 min): 3.48 ± 0.79 % ID/organ | Biodistribution Blood ([4]; 240 min): 1.50 ± 0.13 % ID/g | Biodistribution Brain ([4]; 240 min): 0.10 ± 0.02 % ID/g | Biodistribution Heart ([4]; 240 min): 0.65 ± 0.16 % ID/g | Biodistribution Kidney ([4]; 240 min): 1.34 ± 0.36 % ID/g | Biodistribution Liver ([4]; 240 min): 3.06 ± 0.36 % ID/g | Biodistribution Lung ([4]; 240 min): 1.43 ± 0.52 % ID/g | Biodistribution Muscle ([4]; 240 min): 0.35 ± 0.09 % ID/g | Biodistribution Spleen ([4]; 240 min): 1.37 ± 0.09 % ID/g | Biodistribution Stomach ([4]; 240 min): 2.31 ± 1.44 % ID/organ
SMILES: [125I]c1ccc(/C=C/c2ccc3[nH]ccc3c2)cc1 [[^125I]8]
Autoradiography labeling of Aβ plaques [5]: intense and specific labeling of Aβ plaques; also recorded: excellent labeling of Aβ plaques in the cortex region; also recorded: clearly labeled amyloid plaques in the cortex region
